Source: patent publication US10246446B2, “Blockers of the growth hormone receptor in disease prevention and treatment” (UNIVERSITY OF SOUTHERN CALIFORNIA, priority 2015, dated 2019)

Columns and labels:
Assay type in all cases: cell-based
human GHR [1] = target: T1, human GHR (Homo sapiens, UniProt P10912); experiment: c-fos reporter luciferase assay, GH-stimulated cells; details: for GH induced increase in c-fos reporter activity: FIG. 5A; for c-fos reporter activity, % of untreated controls: cells serum starved, incubated with test compound (10 μM), treated with GH, normalized to renilla luciferase
T1 construct: expressed in transfected cells; HEK293 according to the assay procedure
T1 sequence (P10912 19-638): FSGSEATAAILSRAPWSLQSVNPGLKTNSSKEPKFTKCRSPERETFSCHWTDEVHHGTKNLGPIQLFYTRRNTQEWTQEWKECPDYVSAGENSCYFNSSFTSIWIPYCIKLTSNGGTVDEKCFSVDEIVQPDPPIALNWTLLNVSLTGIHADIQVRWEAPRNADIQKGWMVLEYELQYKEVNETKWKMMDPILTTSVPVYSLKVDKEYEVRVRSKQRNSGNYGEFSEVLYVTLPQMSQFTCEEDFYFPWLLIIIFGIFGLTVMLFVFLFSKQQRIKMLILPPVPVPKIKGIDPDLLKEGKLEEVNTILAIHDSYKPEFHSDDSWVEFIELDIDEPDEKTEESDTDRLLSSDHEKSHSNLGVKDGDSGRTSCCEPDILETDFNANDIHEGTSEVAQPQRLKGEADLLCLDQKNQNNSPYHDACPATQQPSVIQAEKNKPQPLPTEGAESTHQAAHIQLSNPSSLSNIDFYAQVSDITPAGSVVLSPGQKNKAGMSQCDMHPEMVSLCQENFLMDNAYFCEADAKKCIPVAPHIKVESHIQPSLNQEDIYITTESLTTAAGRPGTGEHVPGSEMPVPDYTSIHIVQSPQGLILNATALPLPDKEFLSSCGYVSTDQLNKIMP
Protocol: FIG. 5A. Lead compounds (#34, 37, 38) identified by luciferase reporter assays. Mouse L cells expressing human GHR were transfected with c-fos or SOCS2 reporter luciferase plasmids. Cells were serum starved, incubated with test compounds (#34, 37, 38) and then treated with GH. Data are normalized to co-transfected CMV-driven renilla luciferase and expressed as relative light units (RLU). (A) c-fos reporter luciferase activity.
(§1) In order to perform high throughput screening (HTS) for inhibitors of GHR, HEK293 cell lines permanently transfected were established with a luciferase reporter driven by either c-fos or SOCS2 promoter (FIG. 7).
(§2) The SOCS (Suppressor of Cytokine Signaling) proteins are induced by GH and act as negative regulators of cytokine signaling pathways. […] Luciferase reporter constructs where the luciferase gene is under the control of promoters of either SOCS2 or c-fos have been stably transfected into human embryonic kidney, HEK293 cells. Cells were serum starved (0.5% FBS) for 24 hours to prevent interference by other growth factors and then treated with 5 or 10 nM hGH (established in dose response studies) and 10 μM of each test compound for 24 hours. This is followed by lysis and analysis of luciferase activity using the luciferase reporter assay (Promega). Each compound is tested in triplicate in a 96 well plate format.

human GHR [2] = target: T1, human GHR; experiment: SOCS2 reporter luciferase assay, GH-stimulated cells; details: for GH induced increase in SOCS2 reporter activity: FIG. 5B; for SOCS2 reporter activity, % of untreated controls: cells serum starved, incubated with test compound (10 μM), treated with GH, normalized to renilla luciferase
Protocol: FIG. 5B. Lead compounds (#34, 37, 38) identified by luciferase reporter assays. Mouse L cells expressing human GHR were transfected with c-fos or SOCS2 reporter luciferase plasmids. Cells were serum starved, then incubated with test compounds (#34, 37, 38) before GH treatment. Data were normalized to co-transfected CMV-driven renilla luciferase and expressed as relative light units (RLU). (B) SOCS2 reporter luciferase activity.
FIG. 7. High throughput screening (HTS) platform for the identification of GHR inhibitors. Mouse L cells expressing human GHR were transfected with SOCS2 reporter luciferase plasmids. Cells were serum starved, pre-treated with test compounds (numbered as shown) and then GH. Data are normalized to CMV renilla luciferase and expressed as relative light units (RLU).
as §1, §2

human GHR [3] = experiment: STAT5 phosphorylation assay (western blot), small molecules; details: mouse L cells expressing human GHR; compound 30 min prior to 5 nM hGH; FIG. 6
Protocol: FIG. 6. […] (A) Mouse L cells were incubated in 0.5% serum for 24 hours. Cells were treated with compounds 34, 37 or 38 for 30 min prior to 5 nM hGH treatment. The growth hormone antagonist (GHA) was used as a positive control.
The JAK/STAT signaling pathway is the principal signaling mechanism for a variety of growth factors and cytokines. In the growth hormone signaling pathway, dimerization of the GHR in response to GH binding leads to the activation of JAK by transphosphorylation. Activated JAK phosphorylates STAT5, which can then enter the nucleus and activate transcription of target genes. Inhibition of STAT5 phosphorylation will be used to analyze GHR antagonistic properties of the test compounds.
Mouse L fibroblasts engineered to express […] were obtained from Dr. John Kopchick. Serum starved L cells (0.5% FBS for 24 hours) were pre-treated for 30 minutes with 10 μM of each compound identified as a hit from the luciferase assays. Following this, cells were treated with 5 or 10 nM hGH for 10 minutes. Cells were collected and processed for western blotting with phospho-STAT5 and total STAT5 antibodies (Cell Signaling). The GHR antagonist, G120K is used as a positive control. Band intensity was analyzed using ImageJ and STAT5 phosphorylation normalized to total STAT5 levels. Compounds that inhibited STAT5 phosphorylation were selected for further drug optimization.

Compound: O=C(Nc1cccc(S(=O)(=O)N2CCCCCC2)c1)c1ccco1 [Compound 34]
- GH induced increase in c-fos reporter activity (human GHR [1]): inhibited
- c-fos reporter activity, % of untreated controls (human GHR [1]): 57%
- GH induced increase in SOCS2 reporter activity (human GHR [2]): inhibited
- SOCS2 reporter activity, % of untreated controls (human GHR [2]): 76%
- GH induced phosphorylation of STAT5 (human GHR [3]): able to inhibit phosphorylation of STAT5

Compound: CNS(=O)(=O)c1cc(NC(=O)c2ccc(CSc3ccccc3)o2)ccc1C [Compound 37]
- GH induced increase in c-fos reporter activity (human GHR [1]): inhibited
- c-fos reporter activity, % of untreated controls (human GHR [1]): 27%
- GH induced increase in SOCS2 reporter activity (human GHR [2]): inhibited
- SOCS2 reporter activity, % of untreated controls (human GHR [2]): 61%
- GH induced phosphorylation of STAT5 (human GHR [3]): able to inhibit phosphorylation of STAT5
